Source: ChEMBL document CHEMBL6120941, “Discovery of SIRT1-Activating Hydrogen Sulfide Donating Derivatives for Efficient Resistant of Myocardial Ischemic Injury” (J Med Chem, 2024)
The source made the active and inactive calls. No cut-off for these calls is given here.

Legend:
[1] = system: H9c2; test: Cardioprotective activity against CoCl2-induced cellular hypoxia injury in rat H9c2 cells assessed as increase in cell viability at 30 uM incubated for 24 hrs by CCK-8 assay; format: functional, cell-based
[2] = system: H9c2; test: Cardioprotective activity against CoCl2-induced cellular hypoxia injury in rat H9c2 cells assessed as cell viability at 0.625 uM incubated for 24 hrs by CCK-8 assay (reference value: 51.80 +/- 2.58 %); format: functional; details: read-out: Activity
[3] = system: H9c2; test: Cardioprotective activity against CoCl2-induced cellular hypoxia injury in rat H9c2 cells assessed as cell viability at 1.25 uM incubated for 24 hrs by CCK-8 assay (reference value: 51.80 +/- 2.58 %); format: functional; details: read-out: Activity
[4] = system: H9c2; test: Cardioprotective activity against CoCl2-induced cellular hypoxia injury in rat H9c2 cells assessed as cell viability at 2.5 uM incubated for 24 hrs by CCK-8 assay (reference value: 51.80 +/- 2.58 %); format: functional; details: read-out: Activity
[5] = system: H9c2; test: Cardioprotective activity against CoCl2-induced cellular hypoxia injury in rat H9c2 cells assessed as cell viability at 5 uM incubated for 24 hrs by CCK-8 assay (reference value: 51.80 +/- 2.58 %); format: functional; details: read-out: Activity
[6] = system: H9c2; test: Cardioprotective activity against CoCl2-induced cellular hypoxia injury in rat H9c2 cells assessed as cell viability at 10 uM incubated for 24 hrs by CCK-8 assay (reference value: 51.80 +/- 2.58 %); format: functional; details: read-out: Activity
[7] = biological target: T1, NAD-dependent protein deacetylase sirtuin-1 (Homo sapiens) (UniProt Q96EB6); test: Activation of SIRT1 (unknown origin) using RHKK-ac-AMC as substrate incubated for 2 hrs by FDL assay relative to control; details: filed as activator
T1 sequence (whole entry): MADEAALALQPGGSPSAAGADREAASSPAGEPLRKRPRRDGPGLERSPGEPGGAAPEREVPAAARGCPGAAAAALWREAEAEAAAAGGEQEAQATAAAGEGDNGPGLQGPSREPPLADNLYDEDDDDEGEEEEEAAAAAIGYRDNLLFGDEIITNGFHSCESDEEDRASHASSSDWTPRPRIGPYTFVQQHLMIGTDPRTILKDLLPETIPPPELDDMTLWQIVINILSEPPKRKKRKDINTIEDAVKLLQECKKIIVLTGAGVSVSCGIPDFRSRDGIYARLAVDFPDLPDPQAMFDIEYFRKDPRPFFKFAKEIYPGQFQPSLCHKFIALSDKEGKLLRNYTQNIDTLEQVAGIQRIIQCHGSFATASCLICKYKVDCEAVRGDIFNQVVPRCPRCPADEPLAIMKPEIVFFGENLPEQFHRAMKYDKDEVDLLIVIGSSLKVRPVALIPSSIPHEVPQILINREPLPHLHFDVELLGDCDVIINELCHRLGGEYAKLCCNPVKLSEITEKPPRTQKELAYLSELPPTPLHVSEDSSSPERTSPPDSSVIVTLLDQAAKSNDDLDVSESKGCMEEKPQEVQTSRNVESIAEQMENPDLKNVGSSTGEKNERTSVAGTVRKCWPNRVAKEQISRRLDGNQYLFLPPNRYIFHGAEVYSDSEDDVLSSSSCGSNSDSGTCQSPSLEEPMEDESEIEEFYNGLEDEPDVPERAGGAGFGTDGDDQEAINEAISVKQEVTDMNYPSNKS

[8] = system: Rattus norvegicus; test: Cardioprotective activity in myocardial ischemia Sprague-Dawley rat model assessed as decrease in ISO-induced ST segment at 50 mg/kg, IG treated for 7 days consecutively followed by ISO administration daily for 2 days consecutively by ECG analysis; format: functional, organism-based; details: time 9.0 day
[9] = system: H9c2; test: Cardioprotective activity against CoCl2-induced cellular hypoxia injury in rat H9c2 cells assessed as mitochondrial membrane potential at 50 uM incubated for 24 hrs by JC-1 staining based analysis (reference value: 48.08 %); format: functional
[10] = system: H9c2; test: Cardioprotective activity against CoCl2-induced cellular hypoxia injury in rat H9c2 cells assessed as reduction in apoptosis at 50 uM incubated for 24 hrs by flow cytometry; format: functional, cell-based
[11] = system: H9c2; test: Cardioprotective activity against CoCl2-induced cellular hypoxia injury in rat H9c2 cells assessed as reduction in necrosis at 50 uM incubated for 24 hrs by flow cytometry; format: functional, cell-based
[12] = biological target: T2, NAD-dependent protein deacetylase sirtuin-1 (Rattus norvegicus) (UniProt A0A0G2JZ79); test: Activation of SIRT1 in CoCl2-induced cellular hypoxia injury in rat H9c2 cells at 50 uM incubated for 24 hrs by Western blot analysis; format: cell-based; details: filed as activator
T2 sequence (whole entry): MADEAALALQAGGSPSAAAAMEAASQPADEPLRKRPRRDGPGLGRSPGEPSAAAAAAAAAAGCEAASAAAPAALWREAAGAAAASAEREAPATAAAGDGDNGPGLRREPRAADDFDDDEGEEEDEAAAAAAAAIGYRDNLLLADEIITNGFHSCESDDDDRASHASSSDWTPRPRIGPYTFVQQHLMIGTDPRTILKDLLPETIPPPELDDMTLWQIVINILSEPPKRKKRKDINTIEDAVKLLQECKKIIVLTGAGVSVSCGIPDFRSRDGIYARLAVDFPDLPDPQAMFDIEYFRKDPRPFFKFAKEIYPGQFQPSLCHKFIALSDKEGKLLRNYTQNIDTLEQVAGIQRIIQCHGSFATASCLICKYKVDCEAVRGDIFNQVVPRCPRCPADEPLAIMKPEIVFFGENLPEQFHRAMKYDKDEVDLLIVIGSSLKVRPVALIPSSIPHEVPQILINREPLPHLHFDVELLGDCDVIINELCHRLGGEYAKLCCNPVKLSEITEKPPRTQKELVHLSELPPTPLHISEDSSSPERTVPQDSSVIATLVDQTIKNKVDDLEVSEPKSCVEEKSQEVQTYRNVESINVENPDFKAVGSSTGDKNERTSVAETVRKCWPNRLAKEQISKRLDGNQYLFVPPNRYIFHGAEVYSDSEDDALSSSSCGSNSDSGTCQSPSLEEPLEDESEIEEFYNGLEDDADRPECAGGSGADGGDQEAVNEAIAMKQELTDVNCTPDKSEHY

[13] = system: Rattus norvegicus; test: In vivo activation of SIRT1 in myocardial tissue of myocardial ischemia Sprague-Dawley rat model at 50 mg/kg, IG treated for 7 days consecutively followed by ISO administration daily for 2 days consecutively by Western blot analysis; format: functional, organism-based; details: time 9.0 day
[14] = system: H9c2; test: Cardioprotective activity against CoCl2-induced cellular hypoxia injury in rat H9c2 cells assessed as increase in PGC1-alpha level at 50 uM incubated for 24 hrs by Western blot analysis; format: functional, cell-based
[15] = system: Rattus norvegicus; test: Cardioprotective activity against myocardial ischemia Sprague-Dawley rat model assessed as increase in PGC1-alpha level in myocardial tissue at 50 mg/kg, IG treated for 7 days consecutively followed by ISO administration daily for 2 days consecutively by Western blot analysis; format: functional, organism-based; details: time 9.0 day
[16] = system: H9c2; test: Inhibition of apoptosis in CoCl2-induced cellular hypoxia injury in rat H9c2 cells assessed as increase in Bcl-2 level at 5 to 10 uM incubated for 24 hrs by Western blot analysis; format: functional, cell-based; details: dose 5-10 µM
[17] = system: H9c2; test: Inhibition of apoptosis in CoCl2-induced cellular hypoxia injury in rat H9c2 cells assessed as increase in caspase-3 level at 5 to 10 uM incubated for 24 hrs by Western blot analysis; format: functional, cell-based; details: dose 5-10 µM
[18] = system: H9c2; test: Inhibition of apoptosis in CoCl2-induced cellular hypoxia injury in rat H9c2 cells assessed as decrease in Bax level at 5 to 10 uM incubated for 24 hrs by Western blot analysis; format: functional, cell-based; details: dose 5-10 µM
[19] = Induction of H2S release in PBS at pH 7.4 at 100 uM measured upto 60 mins by methylene blue method; format: functional
[20] = Induction of H2S release in PBS at pH 7.4 measured upto 60 mins by methylene blue method; format: functional
[21] = system: H9c2; test: Induction of H2S release in rat H9c2 cells incubated for 24 hrs by AzMC probe based analysis; format: functional, cell-based; details: dose 1.25-10 µM

| Activity [7] | SMILES | Activity [1] | viability at 0.625 µM [2] | viability at 1.25 µM [3] | viability at 2.5 µM [4] | viability at 5 µM [5] | viability at 10 µM [6] | Activity [19] | Activity [20] | Activity [21] | other results |
| --- | --- | --- | --- | --- | --- | --- | --- | --- | --- | --- | --- |
| 123% | CC(C)(O)[C@@H]1CC[C@@](C)([C@H]2CC[C@]3(C)[C@@H]2[C@H](O)C[C@@H]2[C@@]4(C)CC[C@H](O)C(C)(C)[C@@H]4CC[C@]23C)O1 | inactive | 70.6% | 72.6% | 74.8% | 79.1% | 81.2% |  |  |  |  |
| 158% | Oc1ccc(/C=C/c2cc(O)cc(O)c2)cc1 [RESVERATROL] |  | 58.3% | 58.8% | 64.1% | 68.5% | 76.1% |  |  |  | Activity [8]: Active; Activity [9]: 73.27%; Activity [10]: Active; Activity [11]: Active; Activity [12]: Active; Activity [13]: Active; Activity [14]: Active; Activity [15]: Active; inhibition [16]: Active; inhibition [17]: Active; inhibition [18]: Active |
|  | CC(C)(O)[C@@H]1CC[C@@](C)([C@H]2CC[C@]3(C)[C@@H]2[C@H](O)C[C@@H]2[C@@]4(C)CC[C@H](OC(=O)CCC(=O)Oc5ccc(-c6nc(=O)ss6)cc5)C(C)(C)[C@@H]4[C@@H](O)C[C@]23C)O1 | inactive | 70.1% | 77.4% | 83.7% | 89.1% | 94.2% | Active | 10.5 µM | Dose-dependent-effect |  |
|  | CC(C)(O)[C@H]1CC[C@@](C)([C@H]2CC[C@]3(C)[C@@H]2[C@H](O)C[C@@H]2[C@@]4(C)CC[C@H](OC(=O)CCC(=O)Oc5ccc(-c6nc(=O)ss6)cc5)C(C)(C)[C@@H]4CC[C@]23C)O1 | inactive | 76.4% | 82% | 84.7% | 86.8% | 91.4% | Active | 7 µM | Dose-dependent-effect |  |
|  | C=CCSSCCC(=O)O[C@H]1CC[C@]2(C)[C@H]3C[C@@H](O)[C@@H]4[C@@H]([C@]5(C)CC[C@@H](C(C)(C)O)O5)CC[C@@]4(C)[C@]3(C)C[C@H](O)[C@H]2C1(C)C | inactive | 74.7% | 74.2% | 79.1% | 89.1% | 95.3% | Active | 17.4 µM | Dose-dependent-effect |  |
|  | CC(C)(O)[C@@H]1CC[C@@](C)([C@H]2CC[C@]3(C)[C@@H]2[C@H](O)C[C@@H]2[C@@]4(C)CC[C@H](OC(=O)CCC(=O)Oc5ccc(-c6nc(=O)ss6)cc5)C(C)(C)[C@@H]4CC[C@]23C)O1 | inactive | 73.5% | 81.6% | 87.7% | 91% | 92.2% | Active | 10 µM | Dose-dependent-effect |  |
